Drawing on patent US9751842B2, “Phthalazine derivatives” (Merck Patent GmbH, priority 2013, dated 2017), this text covers IC50 for eleven molecules.

By IC50 is commonly meant the concentration that inhibits the measured activity by half.

Like-named read-outs stand apart in the source and are kept apart here.

Holding throughout (assay type): biochemical
The target in assay [1] is T1, GST-tagged Tankyrase-1 (1023-1327 aa) (Homo sapiens, UniProt O95271).
T1 construct: GST-tagged Tankyrase-1 (1023-1327 aa)
The assay is described as follows: Tankyrase 1 autoparsylation HTRF enzyme assay. The procedure:
(§1) Biochemical Activity Testing of Tankyrase 1 and 2: Autoparsylation Assay
(§2) The autoparsylation assay is run in two steps: the enzymatic reaction in which GST-tagged Tankyrase-1, resp Tankyrase-2 transferred biotinylated ADP-ribose to itself from biotinylated NAD as co-substrate and the detection reaction where a time resolved FRET between cryptate labelled anti-GST bound to the GST tag of the enzyme and Xlent® labelled-streptavidin bound the biotin-parsylation residue is analysed. The autoparsylation activity was detectable directly via the increase in HTRF signal.
(§3) The autoparsylation assay is performed as 384-well HTRF® (Cisbio, Codolet, France) assay format in Greiner low volume nb 384-well microtiter plates and is used for high throughput screen. 250 nM GST-tagged Tankyrase-1 (1023-1327 aa), respectively about 250 nM GST-tagged Tankyrase-2 (873-1166 aa) and 5 μM bio-NAD (Biolog, Life science Inst., Bremen, Germany) as co-substrate are incubated in a total volume of 5 μl (50 mM HEPES, 4 mM Mg-chloride, 0.05% Pluronic F-68, 1.4 mM DTT, 0.5% DMSO, pH 7.7) in the absence or presence of the test compound (10 dilution concentrations) for 90 min at 30° C. The reaction is stopped by the addition of 1 μl 50 mM EDTA solution. 2 μl of the detection solution (1.6 μM SA-Xlent® (Cisbio, Codolet, France), 7.4 nM Anti-GST-K® (Eu-labelled anti-GST, Cisbio, Codolet, France) in 50 mM HEPES, 800 mM KF, 0.1° A. BSA, 20 mM EDTA, 0.1% CHAPS, pH 7.0) are added. After 1 h incubation at room temperature the HTRF is measured with an Envision multimode reader (Perkin Elmer LAS Germany GmbH) at excitation wavelength 340 nm (laser mode) and emission wavelengths 615 nm and 665 nm. The ratio of the emission signals is determined. The full value used is the inhibitor-free reaction. The pharmacological zero value used is XAV-939 (Tocris) in a final concentration of 5 μM. The inhibitory values (IC50) are determined using either the program Symyx Assay Explorer® or Condosseo® from GeneData.

Assay [2] addresses T2, GST-tagged Tnks-1 (1023-1327 aa) (Homo sapiens, UniProt O95271).
T2 construct: GST-tagged Tnks-1 (1023-1327 aa, prepared in-house); made in house
The assay is described as follows: TNKS1 activity ELISA (autoparsylation). As to the method:
(§4) Description of the TNKS1 and TNKS2 ELISA Assay
(§5) Biochemical Activity Testing of TNKS 1 and 2: Activity ELISA (Autoparsylation Assay)
(§6) For analysis of autoparsylation activity of TNKS 1 and 2 an activity ELISA is performed: In the first step GST tagged TNKS is captured on a Glutathione coated plate. Then the activity assay with biotinylated NAD is performed in the absence/presence of the compounds. During the enzymatic reaction GST tagged TNKS transfers biotinylated ADP-ribose to itself from biotinylated NAD as co-substrate. For the detection streptavidin-HRP conjugate is added that binds to the biotinylated TNKS and is thereby captured to the plates. The amount of biotinylated resp. autoparsylated TNKS is detected with a luminescence substrate for HRP. The level of the luminescence signal correlates directly with the amount of autoparsylated TNKS and therefore with activity of TNKS.
(§7) The activity ELISA is performed in 384 well Glutathione coated microtiter plates (Express capture Glutathione coated plate, Biocat, Heidelberg, Germany). The plates are pre-equilibrated with PBS. Then the plates are incubated with 50 μl 20 ng/well GST-tagged Tnks-1 (1023-1327 aa, prepared in-house), respectively GST-tagged Tnks-2 (873-1166 aa, prepared in-house) in assay buffer (50 mM HEPES, 4 mM Mg-chloride, 0.05% Pluronic F-68, 2 mM DTT, pH 7.7) overnight at 4° C. The plates are washed 3 times with PBS-Tween-20. The wells are blocked by incubation at room temperature for 20 minutes with 50 μl blocking buffer (PBS, 0.05% Tween-20, 0.5% BSA). Afterwards the plates are washed 3 times with PBS-Tween-20. The enzymatic reaction is performed in 50 μl reaction solution (50 mM HEPES, 4 mM Mg-chloride, 0.05% Pluronic F-68, 1.4 mM DTT, 0.5% DMSO, pH 7.7) with 10 μM bio-NAD (Biolog, Life science Inst., Bremen, Germany) as co-substrate in the absence or presence of the test compound (10 dilution concentrations) for 1 hour at 30° C. The reaction is stopped by 3 times washing with PBS-Tween-20. For the detection 50 μl of 20 ng/μl Streptavidin, HRP conjugate (MoBiTec, Göttingen, Germany) in PBS/0.05% Tween-20/0.01% BSA are added and the plates are incubated for 30 minutes at room temperature. After three times washing with PBS-Tween-20 50 μl of SuperSignal ELISA Femto Maximum sensitivity substrate solution (ThermoFisherScientific (Pierce), Bonn, Germany) are added. Following a 1 minute incubation at room temperature luminescence signals are measured with an Envision multimode reader (Perkin Elmer LAS Germany GmbH) at 700 nm. The full value used is the inhibitor-free reaction. The pharmacological zero value used is XAV-939 (Tocris) in a final concentration of 5 μM. The inhibitory values (IC50) are determined using either the program Symyx Assay Explorer® or Condosseo® from GeneData.
On the technique in general: ELISA stands for enzyme-linked immunosorbent assay.

For assay [3], the target named is T3, GST-tagged Tnks-2 (873-1166 aa) (Homo sapiens, UniProt Q9H2K2).
T3 construct: GST-tagged Tnks-2 (873-1166 aa, prepared in-house); made in house
Put plainly: TNKS2 activity ELISA (autoparsylation). The procedure:
as §4, §5, §6, §7

In assay [4] the target is T4, GST-tagged Tankyrase-2 (873-1166 aa) (Homo sapiens, UniProt Q9H2K2).
T4 construct: GST-tagged Tankyrase-2 (873-1166 aa)
Put plainly: Tankyrase 2 autoparsylation HTRF enzyme assay. The procedure:
as §1, §2, §3
(TR-FRET usually uses a lanthanide donor and a delayed reading to cut background.)

Assay [5] concerns the target T5, His-tagged Parp-1 (Homo sapiens, UniProt P09874).
T5 construct: purchased Enzo Life Sciences GmbH, Lörrach, Germany
Put plainly: PARP-1 autoparsylation HTRF assay. The conditions noted are these: 150 min at 23° C. The text has this:
Description of the PARP1 Assay
Biochemical Activity Testing of PARP-1: Autoparsylation Assay
The autoparsylation assay is run in two steps: the enzymatic reaction in which His-tagged Parp-1 transfers biotinylated ADP-ribose/ADP-ribose to itself from biotinylated NAD/NAD as co-substrate and the detection reaction where a time resolved FRET between cryptate labelled anti-His antibody bound to the His tag of the enzyme and Xlent® labelled-streptavidin bound the biotin parsylation residue is analysed. The autoparsylation activity is detectable directly via the increase in HTRF signal.
The autoparsylation assay is performed as 384-well HTRF® (Cisbio, Codolet, France) assay format in Greiner low volume nb 384-well microtiter plates. 35 nM His-tagged Parp-1 (human, recombinant, Enzo Life Sciences GmbH, Lörrach, Germany) and a mixture of 125 nM bio-NAD (Biolog, Life science Inst., Bremen, Germany) and 800 nM NAD as co-substrate are incubated in a total volume of 6 μl (100 mM Tris/HCl, 4 mM Mg-chloride, 0.01% IGEPAL® CA630, 1 mM DTT, 0.5% DMSO, pH 8, 13 ng/μl activated DNA (BPS Bioscience, San Diego, US)) in the absence or presence of the test compound (10 dilution concentrations) for 150 min at 23° C. The reaction is stopped by the addition of 4 μl of the Stop/detection solution (70 nM SA-Xlent® (Cisbio, Codolet, France), 2.5 nM Anti-His-K® (Eu-labelled anti-His, Cisbio, Codolet, France) in 50 mM HEPES, 400 mM KF, 0.1% BSA, 20 mM EDTA, pH 7.0). After 1 h incubation at room temperature the HTRF is measured with an Envision multimode reader (Perkin Elmer LAS Germany GmbH) at excitation wavelength 340 nm (laser mode) and emission wavelengths 615 nm and 665 nm. The ratio of the emission signals is determined. The full value used is the inhibitor-free reaction. The pharmacological zero value used is Olaparib (LClabs, Woburn, US) in a final concentration of 1 μM. The inhibitory values (IC50) are determined using either the program Symyx Assay Explorer® or Condosseo® from GeneData.

The mark [6] stands for this setting: HTRF autoparsylation, 90 min at 30° C, read-out: IC50 TNKS1 enzyme assay.
Where [7] appears, read: activity ELISA, 1 hour at 30° C, read-out: IC50 TNKS1 ELISA.
Where [8] appears, read: activity ELISA, 1 hour at 30° C, read-out: IC50 TNKS2 ELISA.
Setting [9] is: HTRF autoparsylation, 90 min at 30° C, read-out: IC50 TNKS2 enzyme assay.

T3 sequence (Q9H2K2 873-1166): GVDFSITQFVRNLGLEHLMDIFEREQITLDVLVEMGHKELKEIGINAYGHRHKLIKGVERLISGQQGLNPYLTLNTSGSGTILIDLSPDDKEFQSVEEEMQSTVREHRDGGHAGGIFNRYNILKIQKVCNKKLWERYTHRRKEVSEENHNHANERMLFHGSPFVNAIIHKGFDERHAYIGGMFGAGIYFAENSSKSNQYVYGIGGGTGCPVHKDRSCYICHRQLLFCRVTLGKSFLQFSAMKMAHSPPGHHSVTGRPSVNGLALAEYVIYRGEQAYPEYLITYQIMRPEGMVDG
T4 sequence (Q9H2K2 873-1166): as above
T5 sequence (P09874 whole entry): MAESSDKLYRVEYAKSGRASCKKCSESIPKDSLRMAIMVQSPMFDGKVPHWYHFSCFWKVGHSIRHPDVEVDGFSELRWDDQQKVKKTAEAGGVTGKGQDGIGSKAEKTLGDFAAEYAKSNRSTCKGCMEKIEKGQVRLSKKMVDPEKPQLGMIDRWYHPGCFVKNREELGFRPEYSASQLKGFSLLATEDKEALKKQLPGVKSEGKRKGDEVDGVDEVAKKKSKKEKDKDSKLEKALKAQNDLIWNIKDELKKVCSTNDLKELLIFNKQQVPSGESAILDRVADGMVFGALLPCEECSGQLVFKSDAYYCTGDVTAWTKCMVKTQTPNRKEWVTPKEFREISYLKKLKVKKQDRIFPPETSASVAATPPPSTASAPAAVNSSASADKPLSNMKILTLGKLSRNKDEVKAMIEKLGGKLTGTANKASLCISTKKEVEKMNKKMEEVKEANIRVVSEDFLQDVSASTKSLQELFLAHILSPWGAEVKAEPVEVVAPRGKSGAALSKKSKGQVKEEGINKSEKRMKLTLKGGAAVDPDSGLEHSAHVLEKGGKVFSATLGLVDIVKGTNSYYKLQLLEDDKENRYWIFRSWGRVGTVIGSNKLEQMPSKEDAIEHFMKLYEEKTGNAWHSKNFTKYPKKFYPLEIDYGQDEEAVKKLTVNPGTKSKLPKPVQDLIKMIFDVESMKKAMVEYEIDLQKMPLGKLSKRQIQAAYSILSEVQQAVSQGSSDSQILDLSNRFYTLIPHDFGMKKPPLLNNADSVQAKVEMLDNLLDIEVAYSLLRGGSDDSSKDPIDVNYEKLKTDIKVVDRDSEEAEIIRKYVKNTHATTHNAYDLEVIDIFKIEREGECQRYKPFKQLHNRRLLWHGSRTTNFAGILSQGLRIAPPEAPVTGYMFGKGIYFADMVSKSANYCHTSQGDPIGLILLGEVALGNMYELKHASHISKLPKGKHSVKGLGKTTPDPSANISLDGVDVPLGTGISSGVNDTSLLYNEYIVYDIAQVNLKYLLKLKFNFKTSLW
T1 sequence (O95271 1023-1327): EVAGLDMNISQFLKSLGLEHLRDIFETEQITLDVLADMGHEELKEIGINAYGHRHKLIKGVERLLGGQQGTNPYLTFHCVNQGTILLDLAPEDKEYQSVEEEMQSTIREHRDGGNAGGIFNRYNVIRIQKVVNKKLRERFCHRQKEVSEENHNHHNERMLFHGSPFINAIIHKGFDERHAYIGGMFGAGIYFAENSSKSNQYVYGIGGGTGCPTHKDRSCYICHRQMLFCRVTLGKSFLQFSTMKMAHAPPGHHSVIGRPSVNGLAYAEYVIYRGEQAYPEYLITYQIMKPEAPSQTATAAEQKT
T2 sequence (O95271 1023-1327): as above

`O=C(Cc1cccc(OC(F)(F)F)c1)Nc1nncc2ccccc12` [Compound A5, N-phthalazin-1-yl-2-(3-trifluoromethoxyphenyl)-acetamide]: the IC50 in assay [1] (setting [6]) fell in the range of 0.3 to 3 µM; in assay [2] (setting [7]), 0.3 to 3 µM; in assay [3] (setting [8]), 0.3 to 3 µM; in assay [4] (setting [9]) it was 3 to 50 µM; in assay [5], 3 to 50 µM.
With `N#Cc1cccc(CC(=O)Nc2nncc3ccccc23)c1` [Compound A6, 2-(3-cyanophenyl)-N-phthalazin-1-yl-acetamide], the IC50 in assay [1] (setting [6]) is 0.3 to 3 µM; in assay [2] (setting [7]), 0.3 to 3 µM; in assay [3] (setting [8]), 0.3 to 3 µM; in assay [4] (setting [9]), 3 to 50 µM; in assay [5], 0.3 to 3 µM.
On to `O=C(Cc1cccc([N+](=O)[O-])c1)Nc1nncc2ccccc12` [Compound A7, 2-(3-nitrophenyl)-N-phthalazin-1-yl-acetamide], for which the IC50 in assay [1], in assay [2], in assay [3], in assay [4] and in assay [5] was 0.3 to 3 µM throughout.
On to `O=C(Cc1ccc(OC(F)(F)F)cc1)Nc1nncc2ccccc12` [Compound A8, N-phthalazin-1-yl-2-(4-trifluoromethoxyphenyl)-acetamide], for which the IC50 was under 0.3 µM in assay [1] (setting [6]); under 0.3 µM in assay [2] (setting [7]); under 0.3 µM in assay [3] (setting [8]); 0.3 to 3 µM in assay [4] (setting [9]); 3 to 50 µM in assay [5].
`CC(C)(C)c1ccc(CC(=O)Nc2nncc3ccccc23)cc1` [Compound A9, 2-(4-tert-butylphenyl)-N-phthalazin-1-yl-acetamide]: the IC50 was 0.3 to 3 µM in assay [1] (setting [6]); under 0.3 µM in assay [2] (setting [7]); under 0.3 µM in assay [3] (setting [8]); 0.3 to 3 µM in assay [4] (setting [9]); 3 to 50 µM in assay [5].
On to `O=C(Cc1c(Cl)cccc1Cl)Nc1nncc2ccccc12` [Compound A10, 2-(2,6-dichlorophenyl)-N-phthalazin-1-yl-acetamide], for which the IC50 in assay [1] (setting [6]), in assay [4] (setting [9]) and in assay [5] was 3 to 50 µM in each case.
Take `CCOc1ccc(CC(=O)Nc2nncc3c(F)cccc23)cc1` [Compound A11, 2-(4-ethoxy-phenyl)-N-(5-fluoro-phthalazin-1-yl)-acetamide]: the IC50 in assay [1] (setting [6]) and in assay [4] (setting [9]) was 3 to 50 µM each time.
On to `COc1ccc(CC(=O)Nc2nncc3c(F)cccc23)cc1` [Compound A12, N-(5-fluoro-phthalazin-1-yl)-2-(4-methoxy-phenyl)-acetamide], for which the figures for the IC50 in assay [1] (setting [6]) and in assay [4] (setting [9]) were 0.3 to 3 µM and 3 to 50 µM, respectively.
On to `O=C(CCC1CCCCC1)Nc1nncc2ccccc12` [Compound A13, 3-cyclohexyl-N-phthalazin-1-yl-propionamide], for which the IC50 in assay [1] (setting [6]) is 0.3 to 3 µM; in assay [2] (setting [7]), under 0.3 µM; in assay [3] (setting [8]), under 0.3 µM; in assay [4] (setting [9]), 0.3 to 3 µM; in assay [5], 3 to 50 µM.
With `Cc1cccc2c(NC(=O)Cc3ccccc3)nncc12` [Compound A19, N-(5-methyl-phthalazin-1-yl)-2-phenyl-acetamide], the IC50 in assay [1] (setting [6]) and in assay [4] (setting [9]) was 3 to 50 µM throughout.
As for `COc1ccc(CC(=O)Nc2nncc3c(C)cccc23)cc1` [Compound A21, 2-(4-methoxy-phenyl)-N-(5-methyl-phthalazin-1-yl)-acetamide], the IC50 in assay [1] (setting [6]) and in assay [4] (setting [9]) was 3 to 50 µM each time.
